Our source for the inhibition, IC50 and Activity values is ChEMBL document CHEMBL2040706, “Inhibition of hepatitis C virus NS3 helicase by manoalide” (J Nat Prod, 2012).

Activity calls are given as the source filed them. The rule behind the calls is not given here.

Test [1] has as its system Hepacivirus hominis. The test is described as follows: Inhibition of HCV NS3 RNA helicase activity using […] as substrate measured every 5 secs for 5 mins and every 30 secs up to 30 mins by photoinduced electron transfer-based fluorescence assay.
Test [2] in a line: Inhibition of HCV NS3 RNA helicase activity using [32Pgamma]-labelled partial duplex RNA as substrate incubated for 15 mins prior to ATP addition measured after 30 mins by PAGE analysis. More on the design: species or system Hepacivirus hominis.
Test [3] can be described thus: (§1) Inhibition of HCV NS3 ATPase activity using [32gamma]ATP as substrate after 30 mins by thin layer chromatography analysis in the presence of poly(U)RNA. More on the design: species or system Hepacivirus hominis.
The subject of test [4] is Hepacivirus hominis. The test is described as §1.
Test [5] relates to Hepacivirus hominis. The test is described as follows: Noncompetitive inhibition of HCV NS3 ATPase activity using 1 to 8 mM [32gamma]ATP at 0.1 mM by Lineweaver-Burk plot analysis.
Test [6] deals with T1, ATP-dependent DNA/RNA helicase DHX36 (Homo sapiens) (UniProt Q9H2U1).
T1 sequence (whole entry): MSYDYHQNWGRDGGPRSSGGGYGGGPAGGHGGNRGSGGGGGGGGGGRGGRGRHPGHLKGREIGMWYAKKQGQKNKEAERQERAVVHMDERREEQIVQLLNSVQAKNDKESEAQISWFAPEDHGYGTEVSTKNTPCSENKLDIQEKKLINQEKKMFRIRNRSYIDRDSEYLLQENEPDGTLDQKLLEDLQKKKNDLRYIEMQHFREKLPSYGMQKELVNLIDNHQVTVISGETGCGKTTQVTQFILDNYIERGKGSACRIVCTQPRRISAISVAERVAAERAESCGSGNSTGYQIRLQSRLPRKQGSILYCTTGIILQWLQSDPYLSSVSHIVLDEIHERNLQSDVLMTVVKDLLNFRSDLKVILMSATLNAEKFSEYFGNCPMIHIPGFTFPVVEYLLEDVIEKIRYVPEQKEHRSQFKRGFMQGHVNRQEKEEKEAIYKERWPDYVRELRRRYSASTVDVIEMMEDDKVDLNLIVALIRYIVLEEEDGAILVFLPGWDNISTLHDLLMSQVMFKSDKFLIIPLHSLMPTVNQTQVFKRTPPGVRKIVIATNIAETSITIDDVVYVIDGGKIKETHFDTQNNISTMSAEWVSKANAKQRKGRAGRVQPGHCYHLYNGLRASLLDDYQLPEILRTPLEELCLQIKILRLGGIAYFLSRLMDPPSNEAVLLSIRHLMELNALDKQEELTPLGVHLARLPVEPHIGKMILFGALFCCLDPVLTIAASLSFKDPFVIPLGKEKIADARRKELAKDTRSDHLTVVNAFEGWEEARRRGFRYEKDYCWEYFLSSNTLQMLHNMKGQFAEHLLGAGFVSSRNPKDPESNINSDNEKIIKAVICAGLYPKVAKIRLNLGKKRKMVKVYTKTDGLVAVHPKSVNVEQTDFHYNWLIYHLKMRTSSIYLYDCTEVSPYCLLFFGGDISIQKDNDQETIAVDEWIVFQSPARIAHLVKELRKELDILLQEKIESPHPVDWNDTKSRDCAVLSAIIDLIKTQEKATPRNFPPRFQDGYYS
The test is described as follows: Inhibition of human DHX36/RHAU ATPase activity using [32Pgamma]ATP as substrate for 30 mins in the presence of poly(U)RNA.

The subject of test [7] is Hepacivirus hominis. The test is described as follows: Inhibition of HCV NS3 binding to human 5'-[32Pgamma]-labelled lethal-7 microRNA precursor ssRNA at 0.1 mM after 15 mins by PAGE analysis.
The test system of test [8] is Hepacivirus hominis. The test is described as follows: Inhibition of HCV NS3 ATPase activity using [32Pgamma]ATP as substrate at 0.1 mM after 60 mins by thin layer chromatography analysis in the absence of poly(U)RNA.
For test [9], the system named is Hepacivirus hominis. The test is described as follows: Binding affinity to HCV NS3 helicase assessed as increase in fluorescence after 15 mins by isothermal denaturation assay.

By IC50 is commonly meant the concentration needed to halve the response being measured. For the compound `CC1=C(CC/C(C)=C/CCC2=CC[C@H](C3=CC(=O)O[C@H]3O)O[C@H]2O)C(C)(C)CCC1` [MANOALIDE], the inhibition result (with Hepacivirus hominis [1]; in the test with Hepacivirus hominis [5]; in test [6]; in the test with Hepacivirus hominis [7]; in the test with Hepacivirus hominis [8]) was “Active” in each case. In addition, the IC50 was 15 µM in test [2] and 70 µM in [3]. In addition, the inhibition entry in the test on Hepacivirus hominis [4] was “Dose-dependent effect”. Further, the Activity entry in the test with Hepacivirus hominis [9] is “Dose-dependent effect”.
